Patent publication US8822503B2, “2-pyridone compounds” (Taisho Pharmaceutical Co., Ltd, priority 2009, dated 2014)

Target: T1, human liver GK (Homo sapiens, UniProt P35557)
T1 construct: GST (glutathione S-transferase) (N); made in house; host or cells: E. coli
T1 sequence (P35557 1-466 isoform P35557-2): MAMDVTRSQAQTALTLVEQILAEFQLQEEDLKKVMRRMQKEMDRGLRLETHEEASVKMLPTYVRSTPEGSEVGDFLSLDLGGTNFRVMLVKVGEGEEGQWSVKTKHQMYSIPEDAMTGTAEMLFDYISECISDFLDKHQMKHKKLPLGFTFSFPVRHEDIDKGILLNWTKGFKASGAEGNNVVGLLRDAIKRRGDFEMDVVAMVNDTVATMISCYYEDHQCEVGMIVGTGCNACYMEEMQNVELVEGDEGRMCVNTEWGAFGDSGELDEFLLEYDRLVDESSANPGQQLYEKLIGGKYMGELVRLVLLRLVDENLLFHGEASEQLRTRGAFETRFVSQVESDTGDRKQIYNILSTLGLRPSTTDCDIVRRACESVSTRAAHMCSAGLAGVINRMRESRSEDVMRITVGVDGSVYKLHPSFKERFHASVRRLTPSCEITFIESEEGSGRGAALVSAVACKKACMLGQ
Assay: GK activation test
Type: biochemical
Details: test compound concentration needed to activate 50% of maximum activation ability; 4 mM 14C-labeled glucose, 2 mM ATP, room temperature, 20 minutes
Protocol: The GK activation test for the test compounds was performed by the method of Irwin A. Rose et al. (J. Biol. Chem. 1964 January; 239:12-7) with partial modifications.
The enzyme source used in this assay, human liver GK, was expressed in E. coli as a fusion protein with GST (glutathione S-transferase) added to the amino terminus and was purified using Glutathione Sepharose 4B (Amersham Biosciences).
The test was carried out using flat-bottom 96-well plates (Sumitomo Bakelite Co., Ltd.). A solution of the test compound in dimethyl sulfoxide (DMSO) and DMSO as a control were added to each well of the plates at a final DMSO concentration of 1%. 25 mM Hepes-KOH (pH=7.1), 25 mM KCl, 2 mM MgCl2, 2 mM ATP, 4 mM ^14C-labeled glucose (Muromachi Yakuhin) and 1 mM DTT (dithiothreitol) were further added at the indicated final concentrations, respectively. Finally, human liver GK was added at 0.24 microgram per well and the reaction was started. The reaction was carried out at room temperature.
After 20 minutes, AG1-X4 resin (BioRad) suspended in 25 mM Hepes-KOH (pH=7.1) was added and the reaction product, labeled glucose 6-phosphate, was allowed to bind thereto. The whole volume was transferred to MultiScreen plates (Millipore) and the resin was washed with water. Thereafter, the labeled glucose 6-phosphate binding to the resin was eluted with a 0.5 M NaCl solution. The labeling activity of the eluted labeled glucose 6-phosphate was measured as an index of GK activity.
The GK activity maximally activated by the test compound was described as maximum activation ability, and the test compound concentration needed to activate 50% of that ability was described as EC50.

SMILES | EC50 [nM]
CC(C)Oc1ccc(/C(=C\[C@H]2CCC(=O)N2)c2ccc(Cl)c(=O)[nH]2)cc1Cl [Example 4-32, 3-Chloro-6-{(E)-1-[3-chloro-4-(propan-2-yloxy)phenyl]-2-[(2R)-5-oxopyrrolidin-2-yl]ethenyl}pyridin-2(1H)-one] | 10 to 500
CS(=O)(=O)c1ccc(/C(=C\CCO)c2ccc(C3CC3)c(=O)[nH]2)cc1 [Example 1-93, 3-Cyclopropyl-6-{(1E)-4-hydroxy-1-[4-(methylsulfonyl)phenyl]but-1-en-1-yl}pyridin-2(1H)-one] | 3000 to 10000
CCN(CC)CCCCc1ccc(/C(=C\C2CCCC2)c2ccc(C(F)(F)F)c(=O)[nH]2)cc1 [Example 1-39, 6-[(E)-2-Cyclopentyl-1-{4-[4-(diethylamino)butyl]phenyl}ethenyl]-3-(trifluoromethyl)pyridin-2(1H)-one] | 500 to 3000
CCOc1ccc(C(C[C@H]2CCC(=O)N2)c2ccc(Cl)c(=O)[nH]2)cc1Cl (stereo partly drawn) [Example 4-3, 3-Chloro-6-{1-(3-chloro-4-ethoxyphenyl)-2-[(2R)-5-oxopyrrolidin-2-yl]ethyl}pyridin-2(1H)-one] | 500 to 3000
Cc1ccc(/C(=C/C2CCCC2)c2ccc(S(=O)(=O)N(C)CCO)cc2)[nH]c1=O [Example 1-15, 4-[(E)-2-Cyclopentyl-1-(5-methyl-6-oxo-1,6-dihydropyridin-2-yl)ethenyl]-N-(2-hydroxyethyl)-N-methylbenzenesulfonamide] | 10 to 500
O=c1[nH]c(/C(=C/[C@H]2CC[C@H](O)CC2)c2ccc(S(=O)(=O)C3CC3)cc2)ccc1C(F)(F)F [Example 1-91, 6-[(E)-1-[4-(Cyclopropylsulfonyl)phenyl]-2-(trans-4-hydroxycyclohexyl)ethenyl]-3-(trifluoromethyl)pyridin-2(1H)-one] | 500 to 3000
CSc1ccc(/C(=C\CCO)c2ccc(C3CC3)c(=O)[nH]2)cc1 [Example 1-92, 3-Cyclopropyl-6-{(1E)-4-hydroxy-1-[4-(methylsulfanyl)phenyl]but-1-en-1-yl}pyridin-2(1H)-one] | 3000 to 10000
O=C1CC[C@H](/C=C(\c2ccc(CCCCO)cc2)c2ccc(Cl)c(=O)[nH]2)N1 [Example 4-26, 3-Chloro-6-{(E)-1-[4-(4-hydroxybutyl)phenyl]-2-[(2R)-5-oxopyrrolidin-2-yl]ethenyl}pyridin-2(1H)-one] | 500 to 3000
CCN(CC)CCCOc1ccc(/C(=C\[C@H]2CCC(O)C2)c2ccc(C(F)(F)F)c(=O)[nH]2)cc1Cl (stereo partly drawn) [Example 1-86, 6-{(E)-1-{3-Chloro-4-[3-(diethylamino)propoxy]phenyl}-2-[(1S)-3-hydroxycyclopentyl]ethenyl}-3-(trifluoromethyl)pyridin-2(1H)-one] | 500 to 3000
CC(C)(C)c1ccc(/C(=C\[C@H]2CCC(=O)N2)c2ccc(Cl)c(=O)[nH]2)cc1 [Example 4-18, 6-{(E)-1-(4-tert-Butylphenyl)-2-[(2R)-5-oxopyrrolidin-2-yl]ethenyl}-3-chloropyridin-2(1H)-one] | 10 to 500
NC(=O)Nc1ccc(/C(=C\C2CCCC2)c2ccc(Cl)c(=O)[nH]2)cc1 [Example 1-106, 1-{4-[(E)-1-(5-Chloro-6-oxo-1,6-dihydropyridin-2-yl)-2-cyclopentylethenyl]phenyl}urea] | 500 to 3000
CSc1ccc(/C(=C\CCNC(C)=O)c2ccc(C3CC3)c(=O)[nH]2)cc1 [Example 1-94, N-{(3E)-4-(5-Cyclopropyl-6-oxo-1,6-dihydropyridin-2-yl)-4-[4-(methylsulfanyl)phenyl]but-3-en-1-yl}acetamide] | 3000 to 10000
Cc1cc(/C(=C\[C@H]2CCC(=O)N2)c2ccc(Cl)c(=O)[nH]2)ccc1OCCCO [Example 4-52, 3-Chloro-6-{(E)-1-[4-(3-hydroxypropoxy)-3-methylphenyl]-2-[(2R)-5-oxopyrrolidin-2-yl]ethenyl}pyridin-2(1H)-one] | 500 to 3000

The remaining lines, values ahead:

EC50 [nM] | SMILES
3000 to 10000 | CS(=O)(=O)c1cc(/C(=C\[C@H]2CCC(=O)N2)c2ccc(Cl)c(=O)[nH]2)ccc1C(F)F [Example 4-157, 3-Chloro-6-{(E)-1-[4-(difluoromethyl)-3-(methylsulfonyl)phenyl]-2-[(2R)-5-oxopyrrolidin-2-yl]ethenyl}pyridin-2(1H)-one]
10 to 500 | O=C1CC[C@H](/C=C(\c2ccc(C(F)F)cc2)c2ccc(C3CC3)c(=O)[nH]2)N1 [Example 4-273, 3-Cyclopropyl-6-{(E)-1-[4-(difluoromethyl)phenyl]-2-[(2R)-5-oxopyrrolidin-2-yl]ethenyl}pyridin-2(1H)-one]
10 to 500 | NS(=O)(=O)c1ccc(/C(=C\[C@H]2CCC(=O)N2)c2ccc(C3CC3)c(=O)[nH]2)cc1 [Example 4-137, 4-{(E)-1-(5-Cyclopropyl-6-oxo-1,6-dihydropyridin-2-yl)-2-[(2R)-5-oxopyrrolidin-2-yl]ethenyl}benzenesulfonamide]
500 to 3000 | O=C1CC[C@H](/C=C(\c2ccc(F)cc2)c2ccc(C3CC3)c(=O)[nH]2)N1 [Example 4-100, 3-Cyclopropyl-6-{(E)-1-(4-fluorophenyl)-2-[(2R)-5-oxopyrrolidin-2-yl]ethenyl}pyridin-2(1H)-one]
500 to 3000 | CC(C)(C)c1ccc(/C(=C\CN2CCCCCC2=O)c2ccc(Cl)c(=O)[nH]2)cc1 [Example 6-6, 1-[(2E)-3-(4-tert-Butylphenyl)-3-(5-chloro-6-oxo-1,6-dihydropyridin-2-yl)prop-2-en-1-yl]azepan-2-one]
3000 to 10000 | O=C1CCC(CC(c2ccc(C(F)F)cc2)c2ccc(C3CC3)c(=O)[nH]2)N1 (single isomer, unassigned) [Example 4-341, 3-Cyclopropyl-6-[1-[4-(difluoromethyl)phenyl]-2-(5-oxopyrrolidin-2-yl)ethyl]pyridin-2(1H)-one]
10 to 500 | O=C1CC[C@H](/C=C(/c2ccc(C3CC3)c(=O)[nH]2)c2ccc(F)cc2O)N1 [Example 4-122, 3-Cyclopropyl-6-{(E)-1-(4-fluoro-2-hydroxyphenyl)-2-[(2R)-5-oxopyrrolidin-2-yl]ethenyl}pyridin-2(1H)-one]
3000 to 10000 | CC(C)(C)c1ccc(C(C[C@H]2CCC(=O)N2)c2ccc(Cl)c(=O)[nH]2)cc1 (single isomer, unassigned) [Example 4-69]
3000 to 10000 | CC(C)c1ccc(/C(=C/[C@H]2CCC(=O)N2)c2ccc(Cl)c(=O)[nH]2)cc1 [Example 4-82, 3-Chloro-6-{(Z)-2-[(2R)-5-oxopyrrolidin-2-yl]-1-[4-(propan-2-yl)phenyl]ethenyl}pyridin-2(1H)-one]
10 to 500 | CCc1ccc(/C(=C/[C@H]2CCC(=O)N2)c2ccc(C(C)(C)C)cc2)[nH]c1=O [Example 4-176, 6-{(E)-1-(4-tert-Butylphenyl)-2-[(2R)-5-oxopyrrolidin-2-yl]ethenyl}-3-ethylpyridin-2(1H)-one]
10 to 500 | O=C1CC[C@H](CC(c2ccc(C(F)F)c(Cl)c2)c2ccc(C3CC3)c(=O)[nH]2)N1 (single isomer, unassigned) [Example 4-225]
3000 to 10000 | CN1CCN(S(=O)(=O)c2ccc(C(C[C@H]3CCC(=O)N3)c3ccc(Cl)c(=O)[nH]3)cc2)CC1 (stereo partly drawn) [Example 4-89, 3-Chloro-6-(1-{4-[(4-methylpiperazin-1-yl)sulfonyl]phenyl}-2-[(2R)-5-oxopyrrolidin-2-yl]ethyl)pyridin-2(1H)-one]
10 to 500 | O=C1CC[C@H](/C=C(\c2ccc(OC(F)(F)F)c(Cl)c2)c2ccc(C3CC3)c(=O)[nH]2)N1 [Example 4-128, 6-{(E)-1-[3-Chloro-4-(trifluoromethoxy)phenyl]-2-[(2R)-5-oxopyrrolidin-2-yl]ethenyl}-3-cyclopropylpyridin-2(1H)-one]
3000 to 10000 | NC(=O)c1cccc(/C(=C\[C@H]2CCC(=O)N2)c2ccc(Cl)c(=O)[nH]2)c1 [Example 4-153, 3-{(E)-1-(5-Chloro-6-oxo-1,6-dihydropyridin-2-yl)-2-[(2R)-5-oxopyrrolidin-2-yl]ethenyl}benzamide]
10 to 500 | COc1cc(F)c(/C(=C\[C@H]2CCC(=O)N2)c2ccc(C3CC3)c(=O)[nH]2)cc1Cl [Example 4-274, 6-{(E)-1-(5-Chloro-2-fluoro-4-methoxyphenyl)-2-[(2R)-5-oxopyrrolidin-2-yl]ethenyl}-3-cyclopropylpyridin-2(1H)-one]
500 to 3000 | COCCCc1ccc(/C(=C\[C@H]2CCC(=O)N2)c2ccc(Cl)c(=O)[nH]2)cc1 [Example 4-264, 3-Chloro-6-{(E)-1-[4-(3-methoxypropyl)phenyl]-2-[(2R)-5-oxopyrrolidin-2-yl]ethenyl}pyridin-2(1H)-one]
